Among the test systems are NCI-H522; K562; SF-295; HOP-92; PC-3; HCT-15; IGROV-1; CCRF-CEM; SW-620; NCI-H226; UACC-62; SF-539; SF-268; M14; SK-MEL-28; A549; SN12C; MDA-MB-231; HL-60; HT-29.
Assay in all cases: DTP human tumour cell line panel, 48 h

This note sets out measurements from ChEMBL document CHEMBL1201862, “PubChem BioAssay data set” (2004).

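In this assay, cells in 96-well plates receive the compound at five concentrations for 48 hours. Endpoints are linearly interpolated between the surrounding concentrations. The concentration for 50% growth inhibition is given as GI50.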 Active and inactive are the calls of the source. Rule as the data show it: active = GI50 up to about 1.1 µM and inactive = higher.

By GI50 is commonly meant the concentration that inhibits growth by half.

With `CC1CC[C@]2(C(=O)O)CCC3(C)C(=C2[C@H]1C)C=CC1[C@@]2(C)CC[C@H](O)C(C)(C)C2CC[C@]13C` (stereo not given in full), the GI50 with NCI-H522 is 23.1 µM (inactive); in the assay on K562 it was 14.7 µM (inactive); with SF-295, 19.9 µM (inactive); with HOP-92, 18.7 µM (inactive); in the assay on PC-3, 21.1 µM (inactive); in the assay with HCT-15, 27.4 µM. For the same compound, the GI50 in the assay on IGROV-1 is 27.9 µM (inactive); with CCRF-CEM, 29.7 µM (inactive); with SW-620, 45.9 µM (inactive); with NCI-H226, 66.1 µM (inactive); with UACC-62, 42.2 µM (inactive); in the assay with SF-539, 17.3 µM (inactive). Also, the GI50 in the assay with SF-268 was 27.7 µM (inactive); in the assay on M14 it was 44.9 µM (inactive); with SK-MEL-28, 28.3 µM (inactive); in the assay with A549 it was 11.8 µM (inactive); with SN12C it was 59.3 µM (inactive); in the assay with MDA-MB-231, 21.3 µM (inactive). In addition, the results for the GI50 in the assay on HL-60 and in the assay on HT-29 were 18.6 µM (inactive) and 31.1 µM (inactive), respectively.
